Measurements: ChEMBL document CHEMBL3774305, “Design, synthesis, and biological evaluation of arylpiperazine-benzylpiperidines with dual serotonin and norepinephrine reuptake inhibitory activities” (Bioorg Med Chem, 2016)

How the values were obtained:
Assay type in all cases: cell-based
[1] = target: T1, Sodium-dependent serotonin transporter (Homo sapiens, UniProt P31645); assay: Inhibition of [3H]-5-HT reuptake in human SERT transfected into HEK293 cells at 1 uM by liquid scintillation counting method relative to venlafaxine HCl
Target sequence in this assay (P31645 whole entry, looked up): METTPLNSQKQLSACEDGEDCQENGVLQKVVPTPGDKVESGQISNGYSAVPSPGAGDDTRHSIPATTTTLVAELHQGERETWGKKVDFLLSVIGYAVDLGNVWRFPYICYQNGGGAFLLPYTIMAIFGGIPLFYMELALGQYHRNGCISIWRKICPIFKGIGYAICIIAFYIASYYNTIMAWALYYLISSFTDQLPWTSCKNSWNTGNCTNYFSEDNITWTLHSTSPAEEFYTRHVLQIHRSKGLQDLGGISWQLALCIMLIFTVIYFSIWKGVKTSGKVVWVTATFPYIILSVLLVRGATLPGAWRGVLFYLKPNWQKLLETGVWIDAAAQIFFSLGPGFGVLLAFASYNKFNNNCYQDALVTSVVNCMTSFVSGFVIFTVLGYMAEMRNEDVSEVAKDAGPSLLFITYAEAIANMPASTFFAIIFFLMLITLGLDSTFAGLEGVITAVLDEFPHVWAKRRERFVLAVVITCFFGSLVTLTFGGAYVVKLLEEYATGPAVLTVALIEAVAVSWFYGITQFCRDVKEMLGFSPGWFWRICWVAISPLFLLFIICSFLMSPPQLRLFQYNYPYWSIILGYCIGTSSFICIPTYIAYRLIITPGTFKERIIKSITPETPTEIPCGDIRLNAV

[2] = target: T2, Sodium-dependent noradrenaline transporter (Homo sapiens, UniProt P23975); assay: Inhibition of [3H]-NE reuptake in human NET transfected into HEK293 cells at 10 uM by liquid scintillation counting method relative to venlafaxine HCl
[3] = target: T2, Sodium-dependent noradrenaline transporter; assay: Inhibition of [3H]-NE reuptake in human NET transfected into HEK293 cells at 1 uM by liquid scintillation counting method relative to […]
[4] = target: T2, Sodium-dependent noradrenaline transporter; assay: Inhibition of [3H]-NE reuptake in human NET transfected into HEK293 cells by liquid scintillation counting method
[5] = target: T1, Sodium-dependent serotonin transporter; assay: Inhibition of [3H]-5-HT reuptake in human SERT transfected into HEK293 cells by liquid scintillation counting method
Target sequence in this assay (P31645 whole entry): as the sequence (P31645 whole entry, looked up) above

T2 sequence (P23975 whole entry): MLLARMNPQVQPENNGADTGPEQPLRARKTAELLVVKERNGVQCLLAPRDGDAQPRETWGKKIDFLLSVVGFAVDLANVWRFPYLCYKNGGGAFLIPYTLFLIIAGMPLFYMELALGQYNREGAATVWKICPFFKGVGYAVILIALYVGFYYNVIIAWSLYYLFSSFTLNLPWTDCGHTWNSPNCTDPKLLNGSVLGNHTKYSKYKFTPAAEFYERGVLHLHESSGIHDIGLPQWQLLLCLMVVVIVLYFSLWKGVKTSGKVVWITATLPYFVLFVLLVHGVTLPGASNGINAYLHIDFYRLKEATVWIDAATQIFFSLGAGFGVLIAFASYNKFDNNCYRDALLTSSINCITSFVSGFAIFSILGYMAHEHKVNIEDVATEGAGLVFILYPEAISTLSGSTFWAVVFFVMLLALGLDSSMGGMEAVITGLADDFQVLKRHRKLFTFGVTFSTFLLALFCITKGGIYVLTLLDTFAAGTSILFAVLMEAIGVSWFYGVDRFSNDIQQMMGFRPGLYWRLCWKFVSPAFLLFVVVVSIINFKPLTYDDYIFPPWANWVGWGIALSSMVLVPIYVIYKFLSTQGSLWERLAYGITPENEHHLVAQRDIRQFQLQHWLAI

| fold change (FC) [1] | fold change (FC) [2] | fold change (FC) [3] | IC50 [4] | IC50 [5] | Compound |
| --- | --- | --- | --- | --- | --- |
| 0.41 | 1.29 | – | – | – | Clc1cccc(N2CCN(CCN3CCC(Cc4ccccc4)CC3)CC2)c1 |
| 0.64 | – | 0.41 | – | – | Clc1cccc(N2CCN(CCN3CCC(Cc4ccccc4)CC3)CC2)c1Cl |
| 0.85 | 1.29 | – | 2.5 µM | 4.32 µM | Clc1ccc(N2CCN(CCN3CCC(Cc4ccccc4)CC3)CC2)c(Cl)c1 |
| 0.87 | 1.6 | – | 0.61 µM | 2.25 µM | Brc1ccc(N2CCN(CCCN3CCC(Cc4ccccc4)CC3)CC2)cc1 |
| 0.44 | 1.46 | – | 0.53 µM | 2.03 µM | Clc1ccc(N2CCN(CCCN3CCC(Cc4ccccc4)CC3)CC2)cc1 |
| 0.08 | 1.01 | – | – | – | c1ccc(CC2CCN(CCCN3CCN(c4ncccn4)CC3)CC2)cc1 |
| 2.4 | 1.36 | – | 0.89 µM | 1.76 µM | COc1ccccc1N1CCN(CCCN2CCC(Cc3ccccc3)CC2)CC1 |
| 0.56 | 1.18 | – | – | – | Clc1ccc(N2CCN(CCN3CCC(Cc4ccccc4)CC3)CC2)cc1 |
| 0.33 | – | -0.05 | – | – | c1ccc(CC2CCN(CCN3CCN(c4ncccn4)CC3)CC2)cc1 |
| 0.32 | 1.23 | – | – | – | c1ccc(CC2CCN(CCCN3CCN(c4ccccn4)CC3)CC2)cc1 |
| 0.76 | 1.34 | – | 1.17 µM | 2.61 µM | FC(F)(F)c1ccc(N2CCN(CCCN3CCC(Cc4ccccc4)CC3)CC2)cc1 |
| 0.31 | – | 0.08 | – | – | c1ccc(CC2CCN(CCN3CCN(c4ccccn4)CC3)CC2)cc1 |
| 1.01 | 1.31 | – | 2.1 µM | 4.92 µM | Brc1ccc(N2CCN(CCN3CCC(Cc4ccccc4)CC3)CC2)cc1 |
| 0.93 | 1.26 | – | – | – | Cc1cccc(C)c1N1CCN(CCN2CCC(Cc3ccccc3)CC2)CC1 |
| 0.89 | 1 | – | – | – | c1ccc(CC2CCN(CCN3CCN(c4ccccc4)CC3)CC2)cc1 |
| 0.27 | – | 0.2 | – | – | COc1ccccc1N1CCN(CCN2CCC(Cc3ccccc3)CC2)CC1 |
| 0.69 | 1.26 | – | – | – | FC(F)(F)c1ccc(N2CCN(CCN3CCC(Cc4ccccc4)CC3)CC2)cc1 |
| 2.83 | 1.37 | – | 1.07 µM | 2 µM | Cc1cccc(C)c1N1CCN(CCCN2CCC(Cc3ccccc3)CC2)CC1 |
| 0.41 | 1.16 | – | – | – | Fc1ccc(N2CCN(CCN3CCC(Cc4ccccc4)CC3)CC2)cc1 |
| 0.79 | 1.63 | – | 0.56 µM | 2.51 µM | Clc1cccc(N2CCN(CCCN3CCC(Cc4ccccc4)CC3)CC2)c1Cl |
| 1.06 | 1.45 | – | 0.76 µM | 1.46 µM | Clc1ccc(N2CCN(CCCN3CCC(Cc4ccccc4)CC3)CC2)c(Cl)c1 |
| 0.27 | 1.4 | – | – | – | Fc1ccc(N2CCN(CCCN3CCC(Cc4ccccc4)CC3)CC2)cc1 |

| Compound | fold change (FC) [1] | fold change (FC) [2] | fold change (FC) [3] | IC50 [4] | IC50 [5] |
| --- | --- | --- | --- | --- | --- |
| c1ccc(CC2CCN(CCCN3CCN(c4ccccc4)CC3)CC2)cc1 | 0.58 | 1.51 | – | 0.6 µM | 1.36 µM |
| Clc1cccc(N2CCN(CCCN3CCC(Cc4ccccc4)CC3)CC2)c1 | 0.69 | 1.41 | – | 0.38 µM | 1.18 µM |
